Test results reported in article PMC3305890, “Synthesis and pharmacological characterization of potent, selective, and orally bioavailable isoindoline class dipeptidyl peptidase IV inhibitors” (Organic and Medicinal Chemistry Letters, 2011).
Read-outs that look alike come from different tables or passages of the source. One block for each molecule: values may come before it.

How the values were obtained:
[1] = Metabolic stability in rat liver microsomes; type: in vitro ADME; settings: 5 μM
Description: (§1) The incubation mixture containing 0.25 mg of rat or human liver microsomes was preincubated with an NADPH-generating system for 5 min at 37°C. The reaction was started by the addition of 5 μL of a DMSO solution containing the test compound (5 μM). At t = 0 and at two additional time points between 0 and 30 min, aliquots (100 μL) were removed and added to termination mixtures (CH3CN). Proteins were sedimented by centrifugation and an aliquot of the supernatant was analyzed by LC/MS/MS.
(§2) In determinations of the in vitrot1/2, the analyte/ISTD peak area ratio was converted to percentage of drug remaining by assigning a value of 100% to the peak area ratio at t = 0. The slope of the regression line fitted to the log (percentage remaining) versus incubation time relationship (-k) was used in the conversion of raw data to the in vitrot1/2 value. In vitro CLint was calculated using the following formula.
(§3) CLint=0.693/Invitro t1/2×mL incubation/mg microsomes×45 mg microsomes/mg liver×[…] (b.w.)

[2] = Metabolic stability in human liver microsomes; type: in vitro ADME; settings: read-out: CL'int Human (converted)
Description: as §1, §2, §3

CYP3A = CYP3A enzyme induction in rat hepatocytes (testosterone 6β-hydroxylation); type: in vitro ADME; settings: rat hepatocytes, 1, 10, 50 μM, 2 days
Description: Enzyme induction was evaluated as follows: Hepatocytes isolated from male SD rats were maintained in culture for 1 day before treatment with the test compound or P-450 inducers. The cells were treated with the test compound (1, 10, 50 μM), β-naphthoflavone (10 μM, CYP1A inducer), phenobarbital (50 μM, CYP2B inducer), dexamethasone (10 μM, CYP3A inducer), or vehicle (0.1% DMSO final volume; used as negative control) for 2 days.
Induction of CYP1A, CYP2B, and CYP3A enzymes was determined based on measurements of 7-ethoxyresorufin O-dealkylation, 7-pentoxyresorufin O-dealkylation, and testosterone 6β-hydroxylation, respectively. Assays were started by the addition of Krebs-Henseleit buffer containing 8 μM 7-ethoxyresorufin, 10 μM 7-pentoxyresorufin, or 250 μM testosterone at a volume of 100 μL per well. After incubation at 37°C for 30 min, aliquots were removed and analyzed by fluorometry (an excitation wavelength of 538 nm and an emission wavelength of 590 nm) or LC/MS/MS to determine the quantities of metabolites formed. Any test compound causing a dose-dependent change equal to or greater than 10% of the positive control (see formula below) was considered an enzyme inducer.
% positive control=(activity of test - compound treated cells - activity of negative control)/(activity of positive control - activity of negative control)×100

[3] = Pharmacokinetics (PK) in SD rats; type: in vivo, Sprague-Dawley (SD) rats; settings: for AUC(0-t): read-out: AUC 0-9 h
Description: Sprague-Dawley (SD) rats were housed under standard conditions and allowed free access to water and a commercial diet. On the day before the experiment, rats were fasted overnight and for the first 12 h of the experiment. […] Blood samples were collected from the jugular vein of each animal with a heparinized syringe under diethyl ether anesthesia at serial time points for 24 h after drug administration. Plasma was obtained by centrifugation at 4°C and stored at -70°C until analysis. Protein precipitation was carried out by the addition of the internal standard solution (70% CH3CN with 0.2% acetic acid) to samples. The tubes underwent vigorous shaking and centrifugation for 5 min; then the supernatant was subjected to LC/MS/MS analysis. Peak areas were determined using Xcalibur® software (Thermo Electron Corporation, UK) and AUC values were calculated by the trapezoidal rule.

plasma DPP-IV = molecular target: T1, plasma DPP-IV (Rattus norvegicus, UniProt P14740); test: Inhibition of rat plasma DPP-IV ex vivo during OGTT; type: in vivo, Wistar/ST rats; settings: for inhibition at 1 mg/kg: 1 mg/kg oral
T1 construct: from tissue; host or cells: plasma of Wistar/ST rats
T1 sequence (P14740 37-767 limits assumed): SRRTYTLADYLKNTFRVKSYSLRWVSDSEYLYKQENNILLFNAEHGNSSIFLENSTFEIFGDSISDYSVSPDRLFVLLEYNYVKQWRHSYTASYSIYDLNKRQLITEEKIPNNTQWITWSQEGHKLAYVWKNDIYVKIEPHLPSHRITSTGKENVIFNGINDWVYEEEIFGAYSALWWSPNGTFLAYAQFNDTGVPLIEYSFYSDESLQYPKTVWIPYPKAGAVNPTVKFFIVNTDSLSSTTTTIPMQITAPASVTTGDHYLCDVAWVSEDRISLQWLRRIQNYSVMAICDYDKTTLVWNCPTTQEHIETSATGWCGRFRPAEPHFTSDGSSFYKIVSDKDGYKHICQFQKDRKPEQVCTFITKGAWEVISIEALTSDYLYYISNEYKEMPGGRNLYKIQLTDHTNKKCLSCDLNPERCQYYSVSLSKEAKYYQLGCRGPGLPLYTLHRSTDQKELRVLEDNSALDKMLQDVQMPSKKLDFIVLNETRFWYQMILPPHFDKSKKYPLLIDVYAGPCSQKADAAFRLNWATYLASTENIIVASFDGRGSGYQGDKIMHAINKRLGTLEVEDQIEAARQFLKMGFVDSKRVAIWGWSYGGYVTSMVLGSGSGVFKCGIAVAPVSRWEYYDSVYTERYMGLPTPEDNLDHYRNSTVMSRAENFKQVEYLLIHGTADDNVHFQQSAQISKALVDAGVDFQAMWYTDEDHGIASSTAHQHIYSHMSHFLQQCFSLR
Description: After 30 min (t = 0), oral glucose challenges (1 g/kg) were conducted and then plasma DPP-IV activities and blood glucose levels were monitored at various intervals over a 2 h period. […].
(§4) All procedures were approved by the Sanwa Kagaku Kenkyusho Institutional Animal Care and Use Committee. 7-week old Wistar/ST rats were housed under standard conditions and allowed free access to water and a commercial diet for at least 5 days. […] After an oral glucose challenge (5 mL/kg of an aqueous solution of 20% glucose), blood samples were collected from the tail vein of each animal into heparin-containing tubes at serial time points for 2 h. Plasma was prepared immediately, frozen, and stored at -20°C prior to analysis.
Plasma DPP-IV activity was determined as described above. A 20 μL plasma sample was mixed with 5 μL of reaction buffer (140 mM NaCl, and 10 mM KCl, 25 mM Tris-HCl, pH 7.4, 1% bovine serum albumin) and 10 μL of buffer containing 60 μM H-Gly-Pro-AMC. After incubation at room temperature for 30 min, the reaction was stopped by the addition of 20 μL of 25% aqueous acetic acid and fluorescence was measured using an excitation wavelength of 360 nm and an emission wavelength of 460 nm.

blood glucose = test: Oral glucose tolerance test (OGTT), blood glucose; type: in vivo; settings: Wistar/ST rats, 1 mg/kg oral, glucose challenge 1 g/kg
Description: (§5) After 30 min (t = 0), oral glucose challenges (1 g/kg) were conducted and then plasma DPP-IV activities and blood glucose levels were monitored at various intervals over a 2 h period.
as §4
(§6) Plasma glucose and insulin were determined with a glucometer (Glutest Pro; SKK, Japan) and a rat insulin ELISA kit (Shibayagi, Japan), respectively, according to the manufacturer's instructions. Statistical analyses were performed using Microsoft Excel. Individual comparisons among more than two experimental groups were assessed using ANOVA, with Fisher's Least Significant Difference post hoc test. Differences were considered significant at P values < 0.05. Analysis of dose-response data was performed by Dunnett's test.

plasma insulin = test: Plasma insulin after glucose challenge in OGTT; type: in vivo; settings: Wistar/ST rats, oral 4b, 10 min after glucose challenge
Description: as §5, §4, §6

human plasma DPP-IV = molecular target: T2, human plasma DPP-IV (Homo sapiens, UniProt P27487); test: IC50 with respect to human plasma DPP-IV (separate experiments); type: biochemical; settings: separate experiments (footnote a)
T2 construct: from tissue; host or cells: human plasma
T2 sequence (P27487 39-766 limits assumed): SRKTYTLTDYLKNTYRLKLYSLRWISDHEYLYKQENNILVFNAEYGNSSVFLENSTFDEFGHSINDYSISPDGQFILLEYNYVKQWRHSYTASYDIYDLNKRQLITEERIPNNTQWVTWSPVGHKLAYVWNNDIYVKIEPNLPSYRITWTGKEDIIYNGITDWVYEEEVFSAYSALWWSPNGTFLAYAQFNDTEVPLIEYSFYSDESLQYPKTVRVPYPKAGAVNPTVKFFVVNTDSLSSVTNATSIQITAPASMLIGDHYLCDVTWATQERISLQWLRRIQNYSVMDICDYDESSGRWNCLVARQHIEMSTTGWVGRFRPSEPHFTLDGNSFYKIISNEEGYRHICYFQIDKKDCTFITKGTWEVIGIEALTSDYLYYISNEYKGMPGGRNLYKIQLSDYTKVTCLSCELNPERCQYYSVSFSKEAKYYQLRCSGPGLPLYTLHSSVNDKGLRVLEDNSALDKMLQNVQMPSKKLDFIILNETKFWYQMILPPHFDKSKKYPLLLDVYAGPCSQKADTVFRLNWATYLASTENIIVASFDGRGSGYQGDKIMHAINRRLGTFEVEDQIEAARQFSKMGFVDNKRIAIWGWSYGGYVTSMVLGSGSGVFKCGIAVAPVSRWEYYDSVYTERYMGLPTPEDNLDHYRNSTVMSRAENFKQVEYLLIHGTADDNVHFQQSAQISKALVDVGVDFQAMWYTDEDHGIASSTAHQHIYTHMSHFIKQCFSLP
Excerpt: Table 1 Inhibition of DPP-IV, -8 and -9 activity by 1,3-dihydroisoindoline derivatives 4, their metabolic clearance by rat and human and their enzyme-inducing (CYP1A, CYP2B, and CYP3A) capacity | column: IC50 (nM) / DPP-IV

[4] = Further PK studies: metabolite identification by LC-MS, in vivo conversion of 4b into 4l; settings: rats, after dosing of 4b
Description: Therefore, further PK studies were conducted. A major metabolite was detected by LC-MS analysis and its structure was determined by comparison of the LC retention time and MS/MS fragmentation pattern with synthetic standards.

[5] = Sprague-Dawley, rat, plasma, po 3 mg/kg
[6] = Sprague-Dawley, rat, plasma, po 10 mg/kg

CL'int Rat [1]: 38.3 mL/min/kg | CLint scaled at 5 μM [2]: 1.67 mL/min/kg | AUC(0-t) ([3]; Sprague-Dawley, rat, plasma, iv 1 mg/kg): 39 ng·h/mL | clearance ([3]; Sprague-Dawley, rat, plasma, iv 1 mg/kg, read-out: CL p (converted)): 437 mL/min/kg | Vd ([3]; Sprague-Dawley, rat, plasma, iv 1 mg/kg, read-out: Vd ss): 8.28 L/kg | Cmax [3, 5]: 37 ng/mL | Tmax [3, 5]: 15 min | AUC(0-t) [3, 5]: 33 ng·h/mL | Cmax [3, 6]: 229 ng/mL | Tmax [3, 6]: 15 min | AUC(0-t) [3, 6]: 156 ng·h/mL | t 1/2α ([3]; iv 1 mg/kg, first t 1/2 column): 3.72 min | t 1/2α ([3]; iv 1 mg/kg, second t 1/2): 16.2 min | BA ([3]; po 3 mg/kg): 27.7% | t 1/2α ([3]; po 3 mg/kg, second t 1/2): 82.2 min | BA ([3]; po 10 mg/kg): 39.9% | t 1/2α ([3]; po 10 mg/kg, second t 1/2): 90 min | inhibition of DPP-IV estimated from the PK profiles (plasma DPP-IV; 3-10 mg/kg doses, for several hours, estimated from the PK profiles): > 50% | inhibition at 0.1 mg/kg (plasma DPP-IV; rat, Wistar/ST rats, 0.1 mg/kg oral): 30% | inhibition at 1 mg/kg (plasma DPP-IV; rat, Wistar/ST rats, over 2 h period after glucose challenge, read-out: inhibition of plasma DPP-IV activity maintained throughout the study): > 90% | inhibition at 1 mg/kg (plasma DPP-IV; rat, Wistar/ST rats, within 30 min post-dose, read-out: inhibition of plasma DPP-IV activity): 95%
Compound: Cc1ccc2c(c1)CN(C(=O)CC(C)(C)NCC(=O)N1CCC[C@H]1C#N)C2 [Compound 4b, (S)-1-(2-(2-Methyl-4-(5-methylisoindolin-2-yl)-4-oxobutan-2-ylamino)acetyl)pyrrolidine-2-carbonitrile]
Enzyme induction (rat) CYP3A (CYP3A): - (Any test compound causing a dose-dependent change equal to or greater than 10% of the positive control (see formula below) was considered an enzyme inducer) | reduction of glucose levels in OGTT (blood glucose): 18% | insulin levels at 10 min post-challenge (plasma insulin): increased

IC50 (human plasma DPP-IV): 1.9 nM | in vivo conversion (of 4b into metabolite 4l) [4]: 60%
Compound: CC(C)(CC(=O)N1Cc2ccc(CO)cc2C1)NCC(=O)N1CCC[C@H]1C#N [Compound 4l, (S)-1-(2-(4-(5-(Hydroxymethyl)isoindolin-2-yl)-2-methyl-4-oxobutan-2-ylamino)acetyl)pyrrolidine-2-carbonitrile]
